Experimental data published in patent US20260224571A1, “AZACYCLOALKANE COMPOUND AND PHARMACEUTICAL COMPOSITION, AND USE THEREOF” (Prime Gene Therapeutics Co., Ltd., priority 2023, published 2026).

Experiments:
ROCK1 = ROCK1 (Homo sapiens, UniProt Q13464); test: ROCK1 kinase enzymatic activity (HTRF, STK2 substrate); assay type: biochemical; settings: ROCK1 kinase reacted at room temperature for 20 minutes
Excerpt: (§1) The kinase activity data was expressed by comparing the kinase activity of the test compound and that of the blank group (containing only DMSO), and the IC50 value was obtained by curve fitting using Prism software (GraphPad7.0).

ROCK2 = ROCK2 (Homo sapiens, UniProt O75116); test: ROCK2 kinase enzymatic activity (HTRF, STK2 substrate); assay type: biochemical; settings: ROCK2 kinase reacted at room temperature for 30 minutes
Sequence of ROCK2 (O75116 whole entry): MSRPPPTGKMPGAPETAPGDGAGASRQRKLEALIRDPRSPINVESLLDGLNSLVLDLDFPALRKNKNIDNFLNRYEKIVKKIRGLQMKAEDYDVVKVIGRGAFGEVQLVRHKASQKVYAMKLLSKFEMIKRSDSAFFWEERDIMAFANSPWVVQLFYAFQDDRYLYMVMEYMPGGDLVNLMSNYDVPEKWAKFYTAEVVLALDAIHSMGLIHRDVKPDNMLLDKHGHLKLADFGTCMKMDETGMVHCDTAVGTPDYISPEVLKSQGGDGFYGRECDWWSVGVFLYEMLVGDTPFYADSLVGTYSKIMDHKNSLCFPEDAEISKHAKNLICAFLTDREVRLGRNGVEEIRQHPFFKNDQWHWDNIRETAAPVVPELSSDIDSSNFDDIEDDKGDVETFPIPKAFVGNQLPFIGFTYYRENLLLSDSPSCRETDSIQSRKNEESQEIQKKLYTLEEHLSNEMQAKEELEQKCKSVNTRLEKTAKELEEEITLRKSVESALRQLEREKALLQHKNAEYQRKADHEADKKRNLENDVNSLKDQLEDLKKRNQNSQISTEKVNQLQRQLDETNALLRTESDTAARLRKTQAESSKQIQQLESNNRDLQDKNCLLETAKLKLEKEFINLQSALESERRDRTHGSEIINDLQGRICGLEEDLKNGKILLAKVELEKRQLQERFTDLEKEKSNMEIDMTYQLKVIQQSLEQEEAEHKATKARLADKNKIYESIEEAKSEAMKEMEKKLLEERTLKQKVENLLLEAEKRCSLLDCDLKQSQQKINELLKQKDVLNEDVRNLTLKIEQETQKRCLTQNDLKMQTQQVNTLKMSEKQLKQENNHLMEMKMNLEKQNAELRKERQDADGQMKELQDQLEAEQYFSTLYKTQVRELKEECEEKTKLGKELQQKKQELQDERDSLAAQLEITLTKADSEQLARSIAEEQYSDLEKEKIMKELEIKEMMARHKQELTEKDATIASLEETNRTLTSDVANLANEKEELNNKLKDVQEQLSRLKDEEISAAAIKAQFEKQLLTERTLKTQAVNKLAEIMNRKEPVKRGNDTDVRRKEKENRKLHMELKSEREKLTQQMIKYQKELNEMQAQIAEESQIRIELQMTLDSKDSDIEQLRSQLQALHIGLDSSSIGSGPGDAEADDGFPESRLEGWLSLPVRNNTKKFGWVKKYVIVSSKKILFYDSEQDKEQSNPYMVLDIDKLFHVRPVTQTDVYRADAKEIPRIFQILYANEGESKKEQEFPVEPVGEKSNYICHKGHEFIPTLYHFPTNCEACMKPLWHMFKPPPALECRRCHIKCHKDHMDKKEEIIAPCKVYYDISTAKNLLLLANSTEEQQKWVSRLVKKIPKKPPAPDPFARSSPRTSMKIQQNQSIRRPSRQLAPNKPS
Excerpt: as §1

Sequence of ROCK1 (Q13464 whole entry): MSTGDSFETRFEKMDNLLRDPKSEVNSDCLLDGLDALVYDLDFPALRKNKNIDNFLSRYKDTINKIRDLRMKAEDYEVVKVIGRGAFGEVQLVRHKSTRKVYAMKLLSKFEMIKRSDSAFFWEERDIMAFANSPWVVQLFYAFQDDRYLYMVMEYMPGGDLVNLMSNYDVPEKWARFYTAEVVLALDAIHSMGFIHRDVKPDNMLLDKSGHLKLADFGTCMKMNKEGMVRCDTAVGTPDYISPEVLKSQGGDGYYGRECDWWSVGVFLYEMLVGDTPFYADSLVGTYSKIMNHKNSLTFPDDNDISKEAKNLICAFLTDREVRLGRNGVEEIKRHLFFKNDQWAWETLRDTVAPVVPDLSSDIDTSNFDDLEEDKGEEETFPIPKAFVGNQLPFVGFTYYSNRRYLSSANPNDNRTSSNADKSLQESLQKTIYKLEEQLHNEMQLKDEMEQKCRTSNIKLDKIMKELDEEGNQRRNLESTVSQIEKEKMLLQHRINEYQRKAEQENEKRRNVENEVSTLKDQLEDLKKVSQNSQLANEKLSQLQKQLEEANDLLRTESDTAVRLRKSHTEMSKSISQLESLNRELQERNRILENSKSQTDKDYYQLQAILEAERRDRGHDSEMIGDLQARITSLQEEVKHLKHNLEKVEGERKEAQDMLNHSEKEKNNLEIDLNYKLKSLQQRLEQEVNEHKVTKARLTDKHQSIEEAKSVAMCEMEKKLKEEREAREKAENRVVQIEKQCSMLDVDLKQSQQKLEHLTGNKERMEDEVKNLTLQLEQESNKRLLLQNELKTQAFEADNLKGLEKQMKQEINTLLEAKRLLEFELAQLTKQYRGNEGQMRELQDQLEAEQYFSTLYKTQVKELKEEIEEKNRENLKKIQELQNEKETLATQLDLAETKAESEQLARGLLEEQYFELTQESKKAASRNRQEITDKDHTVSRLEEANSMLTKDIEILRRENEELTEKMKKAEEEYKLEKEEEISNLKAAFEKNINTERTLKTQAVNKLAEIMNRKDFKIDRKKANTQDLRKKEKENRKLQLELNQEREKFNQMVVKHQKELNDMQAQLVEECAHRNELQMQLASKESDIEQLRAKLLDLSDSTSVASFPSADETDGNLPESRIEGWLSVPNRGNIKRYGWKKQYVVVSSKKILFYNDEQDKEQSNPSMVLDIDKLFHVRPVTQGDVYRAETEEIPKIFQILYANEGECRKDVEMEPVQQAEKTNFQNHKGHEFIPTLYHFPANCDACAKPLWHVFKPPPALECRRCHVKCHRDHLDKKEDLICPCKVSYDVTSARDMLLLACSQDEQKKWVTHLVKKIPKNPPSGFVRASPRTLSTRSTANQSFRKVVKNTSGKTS

With `N#CCC1(n2cc(-c3ncnc4[nH]ccc34)c(N)n2)CN(C(=O)[C@@H]2C[C@H]2C#N)C1` [Example 35, (1R, 2R)-2-(3-(3-amino-4-(7H-pyrrolo[2,3-d]pyrimidin-4-yl)-1H-pyrazol-1-yl)-3-(cyanomethyl)azetidine-1-carbonyl)cyclopropane-1-nitrile] as the compound, how does the IC50 (ROCK1) read?
Its IC50 is under 10 nM.

What about the IC50 (ROCK2) of the same compound?
Its IC50 is under 10 nM.

For `CS(=N)(=O)N1CC(CC#N)(n2cc(-c3ncnc4[nH]ccc34)c(N)n2)C1` (stereo not drawn) [Example 36, 2-(3-(3-amino-4-(7H-pyrrolo[2,3-d]pyrimidin-4-yl)-1H-pyrazol-1-yl)-1-(S-methysulfonylimino)azetidine-3-yl)acetonitrile], which IC50 (ROCK1) is on record?
The IC50 was under 5 nM.

What about the IC50 (ROCK2) of the same compound?
Its IC50 is under 5 nM.

How did the IC50 (ROCK1) turn out when `CC(C)S(=N)(=O)N1CC(CC#N)(n2cc(-c3ncnc4[nH]ccc34)c(N)n2)C1` (stereo not drawn) [Example 39, 2-(3-(3-amino-4-(7H-pyrrolo[2,3-d]pyrimidin-4-yl)-1H-pyrazol-1-yl)-1-(prop-2-yl-sulfonylimino)azetidine-3-yl)acetonitrile] was run?
The IC50 was under 50 nM.

What about the IC50 (ROCK2) of the same compound?
The IC50 was under 50 nM.

For `N#CCC1(n2cc(-c3ncnc4[nH]ccc34)c(N)n2)CN(S(=O)(=O)NS(N)(=O)=O)C1` [Example 42, 3-(3-amino-4-(7H-pyrrolo[2,3-d]pyrimidin-4-yl)-1H-pyrazol-1-yl)-3-(cyanomethyl)-N-sulfamoylazetidine-1-sulfonamide], which IC50 (ROCK1) is on record?
Its IC50 is under 100 nM.

What about the IC50 (ROCK2) of the same compound?
The IC50 was under 50 nM.

`N#CCC1(n2cc(-c3ncnc4[nH]ccc34)c(N)n2)CN(S(=O)(=O)N(CC(F)(F)F)CC(F)(F)F)C1` [Example 43, 3-(3-amino-4-(7H-pyrrolo[2,3-d]pyrimidin-4-yl)-1H-pyrazol-1-yl)-3-(cyanomethyl)-N,N-bis(2,2,2-trifluoroethyl)azetidine-1-sulfonamide] was tested. Which IC50 (ROCK1) did it give?
Its IC50 is under 10 nM.

What about the IC50 (ROCK2) of the same compound?
The IC50 was under 10 nM.

Which IC50 (ROCK1) does the source give for `N#CCC1(n2cc(-c3ncnc4[nH]ccc34)c(N)n2)CN(S(=O)(=O)NCCO)C1` [Example 44, 3-(3-amino-4-(7H-pyrrolo[2,3-d]pyrimidin-4-yl)-1H-pyrazol-1-yl)-3-(cyanomethyl)-N-(2-hydroxyethyl)azetidine-1-sulfonamide] here?
The IC50 was under 50 nM.

What about the IC50 (ROCK2) of the same compound?
The IC50 was under 50 nM.

Which IC50 (ROCK1) does the source give for `N#CCC1(n2cc(-c3ncnc4[nH]ccc34)c(N)n2)CN(S(=O)(=O)NCCCl)C1` [Example 46, 3-(3-amino-4-(7H-pyrrolo[2,3-d]pyrimidin-4-yl)-1H-pyrazol-1-yl)-N-(2-chloroethyl)-3-(cyanomethyl)azetidine-1-sulfonamide] here?
The IC50 was under 10 nM.

And the IC50 (ROCK2)?
The IC50 was under 5 nM.

Which results are given for `N#CCC1(n2cc(-c3ncnc4[nH]ccc34)c(N)n2)CN(S(=O)(=O)N2CC2)C1` [Example 47, 2-(3-(3-amino-4-(7H-pyrrolo[2,3-d]pyrimidin-4-yl)-1H-pyrazol-1-yl)-1-(aziridin-1-ylsulfonyl)azetidine-3-yl)acetonitrile]?
IC50 (ROCK1): < 5 nM; IC50 (ROCK2): < 5 nM

`COCCNS(=O)(=O)N1CC(CC#N)(n2cc(-c3ncnc4[nH]ccc34)c(N)n2)C1` [Example 48, 3-(3-amino-4-(7H-pyrrolo[2,3-d]pyrimidin-4-yl)-1H-pyrazol-1-yl)-3-(cyanomethyl)-N-(2-methoxyethyl)azetidine-1-sulfonamide] was tested. Which IC50 (ROCK1) did it give?
Its IC50 is under 50 nM.

And the IC50 (ROCK2)?
Its IC50 is under 10 nM.

What does the source list for `CNS(=O)(=O)N1CC(CC#N)(n2cc(-c3ncnc4[nH]ccc34)c(N)n2)C1` [Example 49, 3-(3-amino-4-(7H-pyrrolo[2,3-d]pyrimidin-4-yl)-1H-pyrazol-1-yl)-3-(cyanomethyl)-N-methylazetidine-1-sulfonamide]?
IC50 (ROCK1): < 10 nM; IC50 (ROCK2): < 10 nM

For `CN(C)S(=O)(=O)N1CC(CC#N)(n2cc(-c3ncnc4[nH]ccc34)c(N)n2)C1` [Example 51, 3-(3-amino-4-(7H-pyrrolo[2,3-d]pyrimidin-4-yl)-1H-pyrazol-1-yl)-3-(cyanomethyl)-N,N-dimethylazetidine-1-sulfonamide], which IC50 (ROCK1) is on record?
The IC50 was under 10 nM.

What about the IC50 (ROCK2) of the same compound?
Its IC50 is under 10 nM.

What does the source list for `CN(C)CCNS(=O)(=O)N1CC(CC#N)(n2cc(-c3ncnc4[nH]ccc34)c(N)n2)C1` [Example 52, 3-(3-amino-4-(7H-pyrrolo[2,3-d]pyrimidin-4-yl)-1H-pyrazol-1-yl)-3-(cyanomethyl)-N-(2-(dimethylamino)ethyl)azetidine-1-sulfonamide]?
IC50 (ROCK1): < 10 nM; IC50 (ROCK2): < 10 nM

Which results are given for `COC(=O)CNS(=O)(=O)N1CC(CC#N)(n2cc(-c3ncnc4[nH]ccc34)c(N)n2)C1` [Example 53, methyl (3-(3-amino-4-(7H-pyrrolo[2,3-d]pyrimidin-4-yl)-1H-pyrazol-1-yl)-3-(cyanomethyl)azetidine-1-ylsulfonyl)glycinate]?
IC50 (ROCK1): < 10 nM; IC50 (ROCK2): < 10 nM

For `N#CCC1(n2cc(-c3ncnc4[nH]ccc34)c(N)n2)CN(S(=O)(=O)NCC(=O)O)C1` [Example 54], which IC50 (ROCK1) is on record?
Its IC50 is under 50 nM.

And the IC50 (ROCK2)?
Its IC50 is under 50 nM.

For `CCS(=O)(=O)N1CC(CC#N)(n2cc(-c3ncnc4[nH]ccc34)c(O)n2)C1` [Example 56, 2-(1-(ethylsulfonyl)-3-(3-hydroxy-4-(7H-pyrrolo[2,3-d]pyrimidin-4-yl)-1H-pyrazol-1-yl)azetidine-3-yl)acetonitrile], which IC50 (ROCK1) is on record?
Its IC50 is under 50 nM.

And the IC50 (ROCK2)?
The IC50 was over 100 nM.

Which IC50 (ROCK1) does the source give for `CC(C)S(=O)(=O)N1CC(CC#N)(n2cc(-c3ncnc4[nH]ccc34)c(O)n2)C1` [Example 57, 2-(3-(3-hydroxy-4-(7H-pyrrolo[2,3-d]pyrimidin-4-yl)-1H-pyrazol-1-yl)-1-(isopropylsulfonyl)azetidine-3-yl)acetonitrile] here?
The IC50 was under 50 nM.

And the IC50 (ROCK2)?
Its IC50 is over 100 nM.

Which results are given for `N#CCC1(n2cc(-c3ncnc4[nH]ccc34)c(O)n2)CN(S(=O)(=O)C2CC2)C1` [Example 58, 2-(1-(cyclopropylsulfonyl)-3-(3-hydroxy-4-(7H-pyrrolo[2,3-d]pyrimidin-4-yl)-1H-pyrazol-1-yl)azetidine-3-yl)acetonitrile]?
IC50 (ROCK1): < 50 nM; IC50 (ROCK2): > 100 nM

`COc1nn(C2(CC#N)CN(S(=O)(=O)C(C)C)C2)cc1-c1ncnc2[nH]ccc12` [Example 59, 2-(1-(isopropylsulfonyl)-3-(3-methoxy-4-(7H-pyrrolo[2,3-d]pyrimidin-4-yl)-1H-pyrazol-1-yl)azetidine-3-yl)acetonitrile] was tested. Which IC50 (ROCK1) did it give?
The IC50 was under 50 nM.

What about the IC50 (ROCK2) of the same compound?
The IC50 was over 100 nM.

For `N#CCC1(n2cc(-c3ncnc4[nH]ccc34)c(C(N)=O)n2)CN(S(=O)(=O)CC(F)(F)F)C1` [Example 60, 1-(3-(cyanomethyl)-1-((2,2,2-trifluoroethyl)sulfonyl)azetidine-3-yl)-4-(7H-pyrrolo[2,3-d]pyrimidin-4-yl)-1H-pyrazole-3-formamide], which IC50 (ROCK1) is on record?
Its IC50 is over 100 nM.

And the IC50 (ROCK2)?
Its IC50 is over 100 nM.

With `CCS(=O)(=O)N1CC(CC#N)(n2cc(-c3ncnc4[nH]ccc34)c(C(=O)NC)n2)C1` [Example 63, 1-(3-(cyanomethyl)-1-(ethylsulfonyl)azetidine-3-yl)-N-methyl-4-(7H-pyrrolo[2,3-d]pyrimidin-4-yl)-1H-pyrazol-3-formamide] as the compound, how does the IC50 (ROCK1) read?
Its IC50 is over 100 nM.

And the IC50 (ROCK2)?
The IC50 was over 100 nM.

Which IC50 (ROCK1) does the source give for `CNC(=O)c1nn(C2(CC#N)CN(S(=O)(=O)C(C)C)C2)cc1-c1ncnc2[nH]ccc12` [Example 64, 1-(3-(cyanomethyl)-1-(isopropylsulfonyl)azetidine-3-yl)-N-methyl-4-(7H-pyrrolo[2,3-d]pyrimidin-4-yl)-1H-pyrazol-3-formamide] here?
Its IC50 is over 100 nM.

And the IC50 (ROCK2)?
The IC50 was over 100 nM.

Which results are given for `CNC(=O)c1nn(C2(CC#N)CN(S(=O)(=O)C3CC3)C2)cc1-c1ncnc2[nH]ccc12` [Example 65, 1-(3-(cyanomethyl)-1-(cyclopropylsulfonyl)azetidine-3-yl)-N-methyl-4-(7H-pyrrolo[2,3-d]pyrimidin-4-yl)-1H-pyrazol-3-formamide]?
IC50 (ROCK1): > 100 nM; IC50 (ROCK2): > 100 nM

With `CCS(=O)(=O)N1CC(CC#N)(n2cc(-c3ncnc4[nH]ccc34)c(C(N)=O)n2)C1` [Example 66, 1-(3-(cyanomethyl)-1-(ethylsulfonyl)azetidine-3-yl)-4-(7H-pyrrolo[2,3-d]pyrimidin-4-yl)-1H-pyrazol-3-formamide] as the compound, how does the IC50 (ROCK1) read?
The IC50 was over 100 nM.

And the IC50 (ROCK2)?
The IC50 was over 100 nM.

For `N#CCC1(n2cc(-c3ncnc4[nH]ccc34)c(C(N)=O)n2)CN(S(=O)(=O)C2CC2)C1` [Example 67, 1-(3-(cyanomethyl)-1-(cyclopropylsulfonyl)azetidine-3-yl)-4-(7H-pyrrolo[2,3-d]pyrimidin-4-yl)-1H-pyrazol-3-formamide], which IC50 (ROCK1) is on record?
The IC50 was over 100 nM.

What about the IC50 (ROCK2) of the same compound?
Its IC50 is over 100 nM.

How did the IC50 (ROCK1) turn out when `CC(C)S(=O)(=O)N1CC(CC#N)(n2cc(-c3ncnc4[nH]ccc34)c(C(N)=O)n2)C1` [Example 68, 1-(3-(cyanomethyl)-1-(isopropylsulfonyl)azetidine-3-yl)-4-(7H-pyrrolo[2,3-d]pyrimidin-4-yl)-1H-pyrazol-3-formamide] was run?
The IC50 was over 100 nM.

What about the IC50 (ROCK2) of the same compound?
The IC50 was over 100 nM.

Which IC50 (ROCK1) does the source give for `CS(=O)(=O)N1CC(CC#N)(n2cc(-c3ncnc(NCCO)n3)c(N)n2)C1` [Example 70, 2-(3-(3-amino-4-(4-((2-hydroxyethyl)amino)-1,3,5-triazin-2-yl)-1H-pyrazol-1-yl)-1-(methylsulfonyl)azetidine-3-yl)acetonitrile] here?
Its IC50 is over 100 nM.

And the IC50 (ROCK2)?
The IC50 was over 100 nM.

How did the IC50 (ROCK1) turn out when `CN1CCC(Nc2ncnc(-c3cn(C4(CC#N)CN(S(C)(=O)=O)C4)nc3N)n2)CC1` [Example 71, 2-(3-(3-amino-4-(4-((1-methylpiperidin-4-yl)amino)-1,3,5-triazin-2-yl)-1H-pyrazol-1-yl)-1-(methylsulfonyl)azetidine-3-yl)acetonitrile] was run?
Its IC50 is over 100 nM.

What about the IC50 (ROCK2) of the same compound?
The IC50 was over 100 nM.

Which IC50 (ROCK1) does the source give for `CS(=O)(=O)N1CC(CC#N)(n2cc(-c3ncnc(NC4CCOCC4)n3)c(N)n2)C1` [Example 72, 2-(3-(3-amino-4-(4-((tetrahydro-2H-pyran-4-yl)amino)-1,3,5-triazin-2-yl)-1H-pyrazol-1-yl)-1-(methylsulfonyl)azetidine-3-yl)acetonitrile] here?
The IC50 was over 100 nM.

What about the IC50 (ROCK2) of the same compound?
Its IC50 is over 100 nM.

Which IC50 (ROCK1) does the source give for `CS(=O)(=O)N1CC(CC#N)(n2cc(-c3ncnc(NCC4CCOCC4)n3)c(N)n2)C1` [Example 73] here?
The IC50 was over 100 nM.

What about the IC50 (ROCK2) of the same compound?
Its IC50 is over 100 nM.

Which IC50 (ROCK1) does the source give for `CS(=O)(=O)N1CC(CC#N)(n2cc(-c3cc(NCCO)ncn3)c(N)n2)C1` [Example 74, 2-(3-(3-amino-4-(6-((2-hydroxyethyl)amino)pyrimidin-4-yl)-1H-pyrazol-1-yl)-1-(methylsulfonyl)azetidine-3-yl)acetonitrile] here?
The IC50 was over 100 nM.

And the IC50 (ROCK2)?
Its IC50 is over 100 nM.
